Assay results as given in US20230382915A1, “GCN2 AND PERK KINASE INHIBITORS AND METHODS OF USE THEREOF” (Deciphera Pharmaceuticals, LLC, priority 2021, published 2023).

Assays:
PERK enzyme = PERK enzyme (Homo sapiens (Human), UniProt Q9NZJ5); test: Biochemical assay for PERK (coupled pyruvate kinase/lactate dehydrogenase); details: 1 mM ATP
Procedure: Activity of PERK kinase was determined spectroscopically using a coupled pyruvate kinase/lactate dehydrogenase assay that continuously monitors the ATP hydrolysis-dependent oxidation of NADH (e.g., Schindler et al. Science (2000) 289: 1938-1942). Assays were conducted in 384-well plates ([…] final volume) using 10 nM PERK (from Beryllium), 0.25 mg/mL Myelin Basic Protein substrate, 1.5 units pyruvate kinase, 2.1 units lactate dehydrogenase, 1 mM phosphoenol pyruvate, 0.28 mM NADH and 1 mM ATP in assay buffer (100 mM Tris, pH 7.5, 15 mM MgCl2, 0.5 mM DTT, 0.004% (w/v) BSA, and 0.004% Triton X-100). Inhibition of PERK was measured by adding serial diluted test compound (final assay concentration of 1% DMSO). A decrease in absorption at 340 nm was monitored continuously for 6 hours at 30° C. on a multi-mode microplate reader (BioTek). The reaction rate was calculated using the 2-3 h time frame. The reaction rate at each concentration of compound was converted to percent inhibition using controls (i.e., reaction with no test compound and reaction with a known inhibitor) and IC50 values were calculated using software routines in Prism (GraphPad software).

[1] = test system: ATF4 in thapsigargin stimulated CCRF-CEM cells (PERK); test: CCRF-CEM thapsigargin (TG) ATF4 ELISA; assay type: cell-based; details: Homo sapiens, 1 μM thapsigargin
Procedure: CCRF-CEM leukemia cells (catalog #CCL-116) were obtained from the American Type Culture Collection (ATTC, Manassas, VA). Briefly, cells were grown in RPMI-1640 medium supplemented with 10% heat-inactivated fetal bovine serum (Invitrogen, Carlsbad, CA) and 1% Penicillin/Streptomycin/L-Glutamine at 37° C., 5% CO2, and 95% humidity. Cells were expanded until reaching one million cells per mL at which time they were subcultured or harvested for assay use. One million five hundred thousand cells per well in 1 mL complete growth medium were dispensed into 12-well plates and incubated overnight. A serial dilution of test compound was added and cells were incubated at 37° C., 5% CO2, and 95% for three hours, then 1 μM thapsigargin was added and cells were incubated for an additional hour at 37° C., 5% CO2, and 95%. Cells were lysed then ATF4 levels were measured using an ELISA assay (Proteintech, Rosemont, IL). Absorbance was measured at 450 nm and 544 nM using a Synergy2 or equivalent reader (Biotek, Winooski VT). Data was analyzed using PRISM software (Graphpad, San Diego, CA) to calculate IC50 values.

CCRF-CEM leukemia cells = test: CCRF-CEM ASNase cell proliferation assay; assay type: cell-based; details: Homo sapiens, 1 mU/mL ASNase, 72 h
Procedure: CCRF-CEM leukemia cells (catalog #CCL-116) were obtained from the American Type Culture Collect (ATTC, Manassas, VA). Cells were grown in RPMI-1640 medium supplemented with 10% heat-inactivated fetal bovine serum (Invitrogen, Carlsbad, CA) and 1% Penicillin/Streptomycin/L-Glutamine at 37° C., 5% CO2, and 95% humidity. Cells were expanded until reaching one million cells per mL at which time they are subcultured or harvested for assay use. Ten thousand cells per well in 200 μL RPMI-1640 supplemented with 10% heat-inactivated fetal bovine serum and 1% Penicillin/Streptomycin were dispensed into a 96-well black clear bottom plate. A serial dilution of test compound and 1 mU/mL ASNase was added in triplicate and plates were incubated for 72 h at 37° C., 5% CO2, and 95% humidity. At the end of the incubation, 40 μL of a […] solution of resazurin (Sigma, St. Louis, MO) in PBS was added to each well of the plate and plates were incubated for an additional 6 h at 37° C., 5% CO2, and 95% humidity. Plates were read on a Synergy2 or equivalent reader (Biotek, Winooski VT) using an excitation of 540 nm and an emission of 600 nm. Data was analyzed using GraphPad Prism software (GraphPad, San Diego, CA) to calculate IC50 values.

GCN2 kinase = GCN2 kinase (Homo sapiens (Human), UniProt Q9P2K8); test: Biochemical assay for GCN2 (TR-FRET kinase activity); details: 1 mM ATP
GCN2 kinase, sequence (Q9P2K8 whole entry): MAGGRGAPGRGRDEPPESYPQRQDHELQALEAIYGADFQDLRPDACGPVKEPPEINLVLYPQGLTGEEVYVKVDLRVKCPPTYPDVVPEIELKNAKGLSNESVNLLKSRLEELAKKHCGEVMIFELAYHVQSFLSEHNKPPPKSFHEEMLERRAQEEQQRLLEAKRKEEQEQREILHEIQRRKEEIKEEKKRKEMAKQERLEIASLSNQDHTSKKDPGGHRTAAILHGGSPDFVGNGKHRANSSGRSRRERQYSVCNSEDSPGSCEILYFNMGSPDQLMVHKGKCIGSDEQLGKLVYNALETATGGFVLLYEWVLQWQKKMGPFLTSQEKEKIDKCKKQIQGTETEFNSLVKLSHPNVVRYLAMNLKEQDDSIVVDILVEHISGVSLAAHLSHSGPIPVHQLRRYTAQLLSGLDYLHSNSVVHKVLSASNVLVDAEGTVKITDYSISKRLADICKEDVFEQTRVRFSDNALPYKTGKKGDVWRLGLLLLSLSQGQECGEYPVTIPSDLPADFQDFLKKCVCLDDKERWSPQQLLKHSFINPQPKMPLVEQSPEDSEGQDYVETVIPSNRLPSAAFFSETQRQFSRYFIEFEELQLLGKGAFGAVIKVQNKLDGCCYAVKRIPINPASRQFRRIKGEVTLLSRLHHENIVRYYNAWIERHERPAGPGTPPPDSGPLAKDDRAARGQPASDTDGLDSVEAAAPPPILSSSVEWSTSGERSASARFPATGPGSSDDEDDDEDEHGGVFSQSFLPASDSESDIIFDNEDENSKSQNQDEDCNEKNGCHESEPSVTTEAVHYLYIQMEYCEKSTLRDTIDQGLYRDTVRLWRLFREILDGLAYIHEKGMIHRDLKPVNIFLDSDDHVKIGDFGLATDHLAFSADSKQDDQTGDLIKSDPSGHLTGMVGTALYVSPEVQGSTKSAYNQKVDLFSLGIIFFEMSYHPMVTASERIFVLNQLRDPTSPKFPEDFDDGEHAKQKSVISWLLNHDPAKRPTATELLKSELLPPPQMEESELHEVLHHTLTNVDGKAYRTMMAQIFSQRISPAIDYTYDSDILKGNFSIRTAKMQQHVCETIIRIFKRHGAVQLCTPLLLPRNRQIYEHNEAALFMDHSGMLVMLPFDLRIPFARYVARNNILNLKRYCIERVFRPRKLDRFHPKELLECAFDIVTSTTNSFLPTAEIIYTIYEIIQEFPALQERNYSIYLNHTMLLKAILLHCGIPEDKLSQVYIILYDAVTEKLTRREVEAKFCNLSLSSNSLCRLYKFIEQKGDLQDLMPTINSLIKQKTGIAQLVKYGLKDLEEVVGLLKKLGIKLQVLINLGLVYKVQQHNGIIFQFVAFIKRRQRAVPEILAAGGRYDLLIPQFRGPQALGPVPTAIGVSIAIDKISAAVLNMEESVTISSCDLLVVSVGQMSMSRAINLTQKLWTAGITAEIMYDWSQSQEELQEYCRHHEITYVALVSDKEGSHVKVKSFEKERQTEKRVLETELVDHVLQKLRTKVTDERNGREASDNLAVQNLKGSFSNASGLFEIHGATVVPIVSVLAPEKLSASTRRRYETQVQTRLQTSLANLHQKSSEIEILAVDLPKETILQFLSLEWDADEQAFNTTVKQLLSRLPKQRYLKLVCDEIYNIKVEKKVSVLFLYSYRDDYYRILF
Procedure: Activity of GCN2 kinase was determined using a TR-FRET kinase activity assay (e.g. Riddle et al. Analytical Biochemistry (2006) 356(1) 108-116). Assays were conducted in 384-well plates (13 μL assay volume) using 2 nM GCN2 (Carna Biosciences), 130 nM GFP-EIf2α (Invitrogen), 0.2 mg/mL E. coli tRNA (sigma) and 1 mM ATP in kinase buffer (Invitrogen). Inhibition of GCN2 was measured by adding serial diluted test compound (final assay concentration of 0.5% DMSO) followed by a 3-hour incubation. Tb-peIF2α (pSer52) antibody (Invitrogen) (2 nM final assay concentration) in kinase buffer containing EDTA (final assay concentration of 20 mM) was added. After a 60 min incubation at room temperature, TR-FRET was monitored using an excitation wavelength of 340 nm and emission wavelengths of 490 nm and 520 nm. The emission ratio (520/490) at each compound concentration of was converted to percent inhibition using controls (i.e., reaction with no test compound and reaction with a known inhibitor) and IC50 values were calculated by fitting a four-parameter sigmoidal curve to the data using Prism (GraphPad software).

[2] = test system: ATF4 in H929 multiple myeloma cells; test: H929 ATF4 ELISA assay; assay type: cell-based; details: four hours, relative to vehicle treated control
Procedure: H929 multiple myeloma cells (catalog #CRL-9068) were obtained from the American Type Culture Collection (ATTC, Manassas, VA). Briefly, cells were grown in RPMI-1640 medium supplemented with 20% heat-inactivated fetal bovine serum (catalog #A3840002, ThermoFisher Scientific, Waltham, MA), 1% Penicillin/Streptomycin/L-Glutamine (catalog #10378016, ThermoFisher Scientific, Waltham, MA), and 0.05 mM 2-mercaptoethanol (catalog #21985-023, ThermoFisher Scientific, Waltham, MA) at 37° C., 5% CO2, and 95% humidity. Cells were expanded until reaching one million five hundred thousand cells per mL at which time they were sub-cultured or harvested for assay use. One million five hundred thousand cells per well in 1 mL complete growth medium were dispensed into 12-well plates and incubated overnight. A serial dilution of test compound was added, and cells were incubated at 37° C., 5% CO2, and 95% for four hours. Cells were lysed then ATF4 levels were measured using an ELISA assay (Proteintech, Rosemont, IL). Absorbance is measured at 450 nm and 544 nM using a Synergy2 or equivalent reader (Biotek, Winooski VT). Data were analyzed using PRISM software (Graphpad, San Diego, CA) to calculate fold stimulation of cellular ATF4 relative to vehicle treated control.

PERK enzyme, sequence (Q9NZJ5 other isoform, or with tags, fused parts or gaps): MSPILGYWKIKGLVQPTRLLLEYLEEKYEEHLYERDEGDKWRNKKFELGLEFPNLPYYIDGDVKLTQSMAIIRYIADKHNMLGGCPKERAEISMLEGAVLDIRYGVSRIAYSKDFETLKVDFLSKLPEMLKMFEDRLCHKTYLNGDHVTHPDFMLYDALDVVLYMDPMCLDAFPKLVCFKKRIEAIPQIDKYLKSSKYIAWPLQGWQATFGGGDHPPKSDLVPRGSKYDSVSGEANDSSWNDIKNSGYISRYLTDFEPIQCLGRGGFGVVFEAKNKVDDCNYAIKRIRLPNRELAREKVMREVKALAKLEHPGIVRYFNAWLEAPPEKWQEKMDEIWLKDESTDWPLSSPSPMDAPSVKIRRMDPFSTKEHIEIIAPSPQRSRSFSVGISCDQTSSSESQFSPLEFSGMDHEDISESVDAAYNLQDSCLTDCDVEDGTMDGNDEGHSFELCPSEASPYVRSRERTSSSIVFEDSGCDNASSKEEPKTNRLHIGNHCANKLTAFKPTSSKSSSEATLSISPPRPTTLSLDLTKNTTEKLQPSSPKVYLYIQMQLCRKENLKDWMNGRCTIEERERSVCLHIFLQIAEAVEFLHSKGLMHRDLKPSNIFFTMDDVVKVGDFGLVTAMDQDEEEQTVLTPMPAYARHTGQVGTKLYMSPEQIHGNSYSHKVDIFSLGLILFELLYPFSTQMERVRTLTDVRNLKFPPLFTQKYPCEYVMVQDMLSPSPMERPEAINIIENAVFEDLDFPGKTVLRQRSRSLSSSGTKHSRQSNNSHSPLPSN

Row | Compound | IC50 (PERK enzyme) [nM] | IC50 [1] [nM] | IC50 (CCRF-CEM leukemia cells) [nM] | IC50 (GCN2 kinase) [nM] | H929 NS ATF4 ELISA (ATF4 stim) [2]
1 | CC(=O)OCc1cc(Cl)cc(S(=O)(=O)Nc2cccc(-c3cn(C)c4ncnc(N)c34)c2F)c1Cl [Example 1, 3-(N-(3-(4-amino-7-methyl-7H-pyrrolo[2,3-d]pyrimidin-5-yl)-2-fluorophenyl)sulfamoyl)-2,5-dichlorobenzyl acetate] | ≤ 100 | 100 to 500 | 100 to 500 | 1000 to 10000 | 
2 | COCCn1cc(-c2cccc(NS(=O)(=O)c3cc(Cl)cc(CO)c3Cl)c2F)c2c(N)ncnc21 [Example 4] | ≤ 100 | ≤ 100 | ≤ 100 | ≤ 100 | +++ (an ATF4 stim greater than 10 fold and less than or equal to 20 fold)
3 | Cn1cc(-c2cccc(NS(=O)(=O)c3cccc(CO)c3Cl)c2F)c2c(N)ncnc21 [Example 5] | ≤ 100 | 100 to 500 | 1000 to 10000 | 1000 to 10000 | ++ (an ATF4 stim greater than 5-fold and less than or equal to 10 fold)
4 | Cn1cc(-c2cc(F)cc(NS(=O)(=O)c3cc(Cl)cc(CO)c3Cl)c2)c2c(N)ncnc21 [Example 6] | ≤ 100 | 100 to 500 | 500 to 1000 | 100 to 500 | 
5 | Cn1cc(-c2cc(NS(=O)(=O)c3cc(Cl)cc(CO)c3Cl)cc(F)c2F)c2c(N)ncnc21 [Example 7] | ≤ 100 | 100 to 500 | 500 to 1000 | 100 to 500 | 
6 | Nc1ncnc2c1c(-c1cccc(NS(=O)(=O)c3cc(Cl)cc(CO)c3Cl)c1F)cn2C1CC1 [Example 8] | ≤ 100 | ≤ 100 | ≤ 100 | ≤ 100 | +++ (an ATF4 stim greater than 10 fold and less than or equal to 20 fold)
7 | CC(=O)OCc1cc(Cl)cc(S(=O)(=O)Nc2cccc(-c3cn(C4COC4)c4ncnc(N)c34)c2F)c1Cl [Example 9] | ≤ 100 | ≤ 100 | 100 to 500 | 1000 to 10000 | 
8 | Nc1ncnc2c1c(-c1cccc(NS(=O)(=O)c3cc(Cl)cc(CO)c3Cl)c1F)cn2C1COC1 [Example 10] | ≤ 100 | ≤ 100 | ≤ 100 | ≤ 100 | +++ (an ATF4 stim greater than 10 fold and less than or equal to 20 fold)
9 | Nc1nccc2scc(-c3cccc(NS(=O)(=O)c4cc(Cl)cc(CO)c4Cl)c3F)c12 [Example 11] |  | 1000 to 10000 | 500 to 1000 | 100 to 500 | 
10 | Nc1nccc2occ(-c3cccc(NS(=O)(=O)c4cc(Cl)cc(CO)c4Cl)c3F)c12 [Example 12] |  | 1000 to 10000 | 1000 to 10000 | 100 to 500 | 
11 | CC(C)(C)n1cc(-c2cccc(NS(=O)(=O)c3cc(Cl)cc(CO)c3Cl)c2F)c2c(N)ncnc21 [Example 13] | ≤ 100 | 100 to 500 | 100 to 500 | 100 to 500 | 
12 | Nc1ncnc2c1c(-c1cccc(NS(=O)(=O)c3cc(Cl)cc(CO)c3Cl)c1F)cn2C1CCNCC1 [Example 15] | ≤ 100 | 500 to 1000 | 100 to 500 | ≤ 100 | 
13 | Nc1ncnc2c1c(-c1cccc(NS(=O)(=O)c3cc(Cl)cc(CO)c3Cl)c1F)cn2C1CNC1 [Example 16] | ≤ 100 | 100 to 500 | 500 to 1000 | ≤ 100 | 
14 | CN1CCC(n2cc(-c3cccc(NS(=O)(=O)c4cc(Cl)cc(CO)c4Cl)c3F)c3c(N)ncnc32)CC1 [Example 17] |  | ≤ 100 | ≤ 100 |  | +++ (an ATF4 stim greater than 10 fold and less than or equal to 20 fold)
15 | Cn1cc(-c2cccc(NS(=O)(=O)c3cc(Cl)cc(CO)c3Cl)c2F)c2c(N)nccc21 [Example 18] | ≤ 100 | 1000 to 10000 | 1000 to 10000 | 1000 to 10000 | 
16 | Cn1cc(-c2cccc(NS(=O)(=O)c3cc(F)cc(CO)c3Cl)c2F)c2c(N)ncnc21 [Example 19] | ≤ 100 | ≤ 100 | 100 to 500 | 100 to 500 | 
17 | Cn1cc(-c2cccc(NS(=O)(=O)c3cc(Cl)cc(CO)c3Cl)c2Cl)c2c(N)ncnc21 [Example 20] | ≤ 100 | 100 to 500 | 100 to 500 | 100 to 500 | 
18 | Cn1cc(-c2cccc(NS(=O)(=O)c3cc(Cl)cc(CO)c3F)c2F)c2c(N)ncnc21 [Example 22] | ≤ 100 | 100 to 500 | 1000 to 10000 | 100 to 500 | 
19 | [2H]C([2H])([2H])n1cc(-c2cccc(NS(=O)(=O)c3cc(Cl)cc(CO)c3Cl)c2F)c2c(N)ncnc21 [Example 27] | ≤ 100 | ≤ 100 | ≤ 100 | ≤ 100 | 
20 | COCc1cc(Cl)cc(S(=O)(=O)Nc2cccc(-c3cn(C)c4ncnc(N)c34)c2F)c1Cl [Example 29] | ≤ 100 | 100 to 500 | 1000 to 10000 | 100 to 500 | 
21 | CCC(C)(C)C(=O)OCc1cc(Cl)cc(S(=O)(=O)Nc2cccc(-c3cn(C)c4ncnc(N)c34)c2F)c1Cl [Example 30] | 1000 to 10000 | 500 to 1000 | 1000 to 10000 | 1000 to 10000 | 
22 | Cn1cc(-n2cc(-c3cccc(NS(=O)(=O)c4cc(Cl)cc(CO)c4Cl)c3F)c3c(N)ncnc32)cn1 [Example 31] | ≤ 100 | ≤ 100 | ≤ 100 | ≤ 100 | 
23 | Nc1ncnc2c1c(-c1cccc(NS(=O)(=O)c3cc(Cl)cc(CO)c3Cl)c1F)cn2-c1cn[nH]c1 [Example 32] | ≤ 100 | 100 to 500 | ≤ 100 | ≤ 100 | 
24 | Cn1cc(-c2cccc(NS(=O)(=O)c3cc(Cl)cc(CO)c3Br)c2F)c2c(N)ncnc21 [Example 33] | ≤ 100 | ≤ 100 | ≤ 100 | ≤ 100 | 
